Data: patent publication US8962674B2 (Tokyo Institute of Technology, priority 2006, dated 2015)

Assays:
aggregated Aβ1-42 = aggregated Aβ1-42 (Homo sapiens (Human), UniProt P05067); assay: Aβ1-42 degradation assay on pre-formed aggregates, thioflavin T fluorescence (Test Example 3); assay type: biochemical; details: aggregated Aβ, 1 hr at 37° C., read-out: IC50 (Aβ1-42 aggregate degradation, Table 2 head)
Protocol: Aβ1-42 (Peptide Institute) was dissolved in a 0.1% NH3 solution at a concentration of 60 μM, and incubated for 24 hr at 37° C. to form the aggregation. 25 μM of the aggregated Aβ solution diluted by 100 mM phosphate buffer (pH 7.4) and the compound dilution containing 2% DMSO were mixed in equal amount. The mixtures were incubated for 1 hr at 37° C. in a black 96-well plate. After incubation, 6 μM thioflavin T (Sigma) in 100 mM of glycine-NaOH buffer, pH 8.5, was added, and fluorescence was measured for excitation at 440 nm and emission at 486 nm. The solution with DMSO only, instead of the compound solution, was used as a negative control. The activity was calculated as a percentage of the negative control.

Sequence of aggregated Aβ1-42 (P05067 672-713): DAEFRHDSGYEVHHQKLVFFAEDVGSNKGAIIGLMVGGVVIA

IC50 (aggregated Aβ1-42): 3.3 µM
melting point: 117 to 120 °C
SMILES: COc1cc(/C=C/C(=O)CC(=O)/C=C/c2ccc(S(C)(=O)=O)cc2)ccc1O [CU005, (1E,6E)-1-(4-hydroxy-3-methoxyphenyl)-7-(4-methanesulfonylphenyl)hepta-1,6-diene-3,5-dione]
